From patent US8735584B2 (Merck Patent GmbH, priority 2008, dated 2014) come the findings set out here.

Where only a bound is given, the exact number is not on record here.

Holding throughout (type): biochemical
The target in one experiment is T1, AurA (Homo sapiens, UniProt O14965).
T1 construct: purchased Caliper Life Sciences
T1 sequence (O14965 1-403): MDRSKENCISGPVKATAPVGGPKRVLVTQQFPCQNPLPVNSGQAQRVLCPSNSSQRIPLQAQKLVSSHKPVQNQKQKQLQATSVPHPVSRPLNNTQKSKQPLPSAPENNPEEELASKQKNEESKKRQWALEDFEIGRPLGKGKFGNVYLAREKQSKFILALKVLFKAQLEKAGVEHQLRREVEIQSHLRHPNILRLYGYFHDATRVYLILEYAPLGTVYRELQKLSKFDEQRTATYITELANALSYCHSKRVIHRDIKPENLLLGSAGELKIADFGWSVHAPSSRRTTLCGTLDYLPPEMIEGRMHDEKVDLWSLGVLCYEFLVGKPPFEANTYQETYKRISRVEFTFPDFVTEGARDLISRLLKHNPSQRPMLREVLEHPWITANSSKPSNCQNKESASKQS
Nature of the experiment: Desktop Profiler kinase panel, AurA. The note with it: for inhibition at 10 µM: 10 micromolar concentration of the compound, read-out: Percent Inhibition AurA; for inhibition at 1 µM: 1 micromolar concentration of the compound. How it is done: (§1) The Aurora assays described here are performed on two Caliper Life Sciences systems: the LC3000 and the Desktop Profiler. These provide data on enzyme activity via measurement of the relative amounts of phosphorylated or unphosphorylated fluorescently labelled substrate peptide at the end of an enzymatic reaction. These different states of peptide are resolved by applying a potential difference across the sample. The presence of the charged phosphate group on the product (as opposed to the substrate) causes a different peptide mobility between the two peptides. This is visualized by excitation of the fluorescent label on the substrate and product peptides and represented as peaks within the analysis software.
(§2) The Desktop Profiler utilizes the same principle as the LC3000 for calculating percentage conversion of a substrate to product. Caliper Life Sciences provides proprietary flash frozen pre-made 384 well plates containing selected kinases. Each column in the 384 well plate contains a particular selected kinase. A second plate, the ‘substrate plate’ contains a mix of fluorescently labeled peptide substrate and ATP. These are arranged in columns so that transfer for substrate plate to enzyme plate provides the correct enzyme with the correct substrate/ATP concentration. Compounds are added to a thawed enzyme plate in the desired format, in single concentrations. Reactions are initiated by transfer of the substrate/ATP mix from the substrate plate. The enzyme plate is incubated for 90 mins at 25 C. The reaction is stopped by addition of 70 ul of Stop Buffer (100 mM HEPES pH 7.5, 0.015% Brij-35, 10 mM EDTA (Sigma, E7889)).
(§3) Reading of the plate in the Profiler is identical to the LC3000, and the ratio between substrate and product peaks provides the activity of the enzyme in that well. This is best represented by a plate heat map which colors each well by percent inhibition as compared to positive and negative controls (no inhibitors and no ATP respectively).
(§4) In the following Tables 3a-4-b, which show the results of the desktop profiler measurements, “+” means 50-70% inhibition, “++” means 70-90% inhibition, and “+++” means >90% inhibition. The enzymes tested for profiling were ABL, AKT1, AKT2, AurA, CHK1, CHK2, CK1d, Erk1, Erk2, FYN, GSK3b, INSR, LCK, LYN, MAPKAPK2, MET, MSK1, p38a, PKA, PKCz, PKD2, PRAK, RSK1 and SRC.

Another experiment addresses T2, FYN (Homo sapiens, UniProt P06241).
T2 construct: purchased Caliper Life Sciences
Kind of experiment: Desktop Profiler kinase panel, FYN. The note with it: for inhibition at 10 µM: 10 micromolar concentration of the compound, read-out: Percent Inhibition FYN; for inhibition at 1 µM: 1 micromolar concentration of the compound. How it is done: as §1, §2, §3, §4

For another experiment, the target named is T3, ABL (Homo sapiens, UniProt P00519).
T3 construct: purchased Caliper Life Sciences
Nature of the experiment: Desktop Profiler kinase panel, ABL. The note with it: for inhibition at 10 µM: 10 micromolar concentration of the compound, read-out: Percent Inhibition ABL; for inhibition at 1 µM: 1 micromolar concentration of the compound. How it is done:
as §1, §2, §3, §4

The next experiment addresses T4, LCK (Homo sapiens, UniProt P06239).
T4 construct: purchased Caliper Life Sciences
Nature of the experiment: Desktop Profiler kinase panel, LCK. The conditions noted are these: for inhibition at 10 µM: 10 micromolar concentration of the compound, read-out: Percent Inhibition LCK. How it is done: as §1, §2, §3, §4

The next experiment addresses T5, LYN (Homo sapiens, UniProt P07948).
T5 construct: purchased Caliper Life Sciences
Kind of experiment: Desktop Profiler kinase panel, LYN. The note with it: for inhibition at 10 µM: 10 micromolar concentration of the compound, read-out: Percent Inhibition LYN. As for the experimental part: as §1, §2, §3, §4

A further experiment deals with T6, SRC (Homo sapiens, UniProt P12931).
T6 construct: purchased Caliper Life Sciences
Kind of experiment: Desktop Profiler kinase panel, SRC. The conditions noted are these: for inhibition at 10 µM: 10 micromolar concentration of the compound, read-out: Percent Inhibition SRC; for inhibition at 1 µM: 1 micromolar concentration of the compound. How it is done:
as §1, §2, §3, §4

The next experiment concerns the target T7, GST-Aurora A (Homo sapiens, UniProt O14965).
T7 construct: N-terminal GST fusion with full length Aurora A (1-403 amino acids); purchased Carna Biosciences 05-101
T7 sequence (O14965 1-403): T1 sequence (O14965 1-403)
Nature of the experiment: Aurora A IC50, Caliper LC3000 mobility shift assay. The note with it: LC3000 method; 15 uM ATP (the KM value); read-out: Aurora Kinase A Activity (IC50). The method, boiled down: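 GST-tagged full-length Aurora A (0.067 ng/ul) with 15 uM ATP (KM) and 1 uM FITC-LRRASLG peptide in 100 mM HEPES pH 7.5, 1 mM MgCl2, 1 mM DTT, Brij-35; 90 min at 25 C, EDTA stop. Off-chip mobility shift read of substrate-to-product conversion; IC50 from sigmoidal dose-response.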

Another experiment concerns the target T8, CHK2 (Homo sapiens, UniProt O96017).
T8 construct: purchased Caliper Life Sciences
Kind of experiment: Desktop Profiler kinase panel, CHK2. The note with it: 10 micromolar concentration of the compound; read-out: Percent Inhibition CHK2. How it is done: as §1, §2, §3, §4

Setting [1] is: 1 micromolar concentration of the compound.

T5 sequence (P07948 whole entry, species assumed): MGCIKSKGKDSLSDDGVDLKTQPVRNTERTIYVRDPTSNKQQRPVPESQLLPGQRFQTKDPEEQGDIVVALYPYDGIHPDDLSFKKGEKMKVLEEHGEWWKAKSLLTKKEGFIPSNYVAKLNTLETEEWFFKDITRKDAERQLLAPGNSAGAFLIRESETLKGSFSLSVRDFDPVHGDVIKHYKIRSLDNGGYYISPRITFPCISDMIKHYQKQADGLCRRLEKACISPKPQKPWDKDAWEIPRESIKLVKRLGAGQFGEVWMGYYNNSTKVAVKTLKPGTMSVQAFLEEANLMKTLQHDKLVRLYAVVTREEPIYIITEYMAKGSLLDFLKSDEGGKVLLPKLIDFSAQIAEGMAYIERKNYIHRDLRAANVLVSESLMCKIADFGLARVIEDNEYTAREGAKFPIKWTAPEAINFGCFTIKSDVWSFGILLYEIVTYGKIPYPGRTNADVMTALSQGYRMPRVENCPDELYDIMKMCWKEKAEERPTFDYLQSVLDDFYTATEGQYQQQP
T3 sequence (P00519 whole entry, species assumed): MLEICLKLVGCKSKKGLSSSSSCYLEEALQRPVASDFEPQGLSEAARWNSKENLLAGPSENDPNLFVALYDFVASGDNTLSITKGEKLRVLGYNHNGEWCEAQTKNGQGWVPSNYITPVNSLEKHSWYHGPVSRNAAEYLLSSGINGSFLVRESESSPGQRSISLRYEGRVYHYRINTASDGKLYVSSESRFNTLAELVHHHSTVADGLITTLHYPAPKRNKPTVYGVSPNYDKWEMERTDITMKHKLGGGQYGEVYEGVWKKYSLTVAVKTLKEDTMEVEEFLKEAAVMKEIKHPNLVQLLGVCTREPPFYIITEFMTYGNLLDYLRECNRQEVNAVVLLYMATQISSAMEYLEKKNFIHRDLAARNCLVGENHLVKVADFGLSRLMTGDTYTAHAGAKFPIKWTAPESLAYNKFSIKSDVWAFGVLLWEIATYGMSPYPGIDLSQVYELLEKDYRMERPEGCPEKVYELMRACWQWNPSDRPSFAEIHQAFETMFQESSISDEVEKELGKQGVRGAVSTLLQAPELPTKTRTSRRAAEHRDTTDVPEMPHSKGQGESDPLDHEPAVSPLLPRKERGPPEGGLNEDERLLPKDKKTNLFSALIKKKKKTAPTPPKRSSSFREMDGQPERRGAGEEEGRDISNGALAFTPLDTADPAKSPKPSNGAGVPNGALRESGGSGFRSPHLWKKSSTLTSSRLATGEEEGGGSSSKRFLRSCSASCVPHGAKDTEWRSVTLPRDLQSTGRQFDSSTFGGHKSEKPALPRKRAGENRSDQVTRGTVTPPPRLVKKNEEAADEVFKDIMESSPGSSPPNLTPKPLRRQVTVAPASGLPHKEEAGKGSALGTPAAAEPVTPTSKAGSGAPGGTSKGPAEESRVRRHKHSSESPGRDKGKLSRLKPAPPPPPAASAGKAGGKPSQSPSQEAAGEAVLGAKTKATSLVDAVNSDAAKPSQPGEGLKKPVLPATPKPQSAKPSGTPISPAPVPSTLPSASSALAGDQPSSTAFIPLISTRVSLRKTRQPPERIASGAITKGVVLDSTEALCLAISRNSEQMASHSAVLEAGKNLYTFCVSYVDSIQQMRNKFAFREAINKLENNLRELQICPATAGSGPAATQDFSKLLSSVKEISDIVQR
T8 sequence (O96017 whole entry, species assumed): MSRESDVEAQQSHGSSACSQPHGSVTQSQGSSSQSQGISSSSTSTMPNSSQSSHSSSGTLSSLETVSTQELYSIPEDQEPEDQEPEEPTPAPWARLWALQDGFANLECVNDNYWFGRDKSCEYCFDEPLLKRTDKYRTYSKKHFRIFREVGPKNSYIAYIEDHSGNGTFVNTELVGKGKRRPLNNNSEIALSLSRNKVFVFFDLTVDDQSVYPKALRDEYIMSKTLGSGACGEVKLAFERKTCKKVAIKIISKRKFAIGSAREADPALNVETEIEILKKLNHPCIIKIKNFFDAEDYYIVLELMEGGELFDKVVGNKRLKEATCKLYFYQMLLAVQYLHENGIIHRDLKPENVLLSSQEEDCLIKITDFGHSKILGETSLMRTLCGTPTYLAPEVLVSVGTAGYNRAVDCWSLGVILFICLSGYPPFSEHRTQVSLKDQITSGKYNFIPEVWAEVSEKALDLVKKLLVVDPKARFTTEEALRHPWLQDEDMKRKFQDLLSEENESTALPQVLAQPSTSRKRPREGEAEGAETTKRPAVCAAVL
T6 sequence (P12931 whole entry, species assumed): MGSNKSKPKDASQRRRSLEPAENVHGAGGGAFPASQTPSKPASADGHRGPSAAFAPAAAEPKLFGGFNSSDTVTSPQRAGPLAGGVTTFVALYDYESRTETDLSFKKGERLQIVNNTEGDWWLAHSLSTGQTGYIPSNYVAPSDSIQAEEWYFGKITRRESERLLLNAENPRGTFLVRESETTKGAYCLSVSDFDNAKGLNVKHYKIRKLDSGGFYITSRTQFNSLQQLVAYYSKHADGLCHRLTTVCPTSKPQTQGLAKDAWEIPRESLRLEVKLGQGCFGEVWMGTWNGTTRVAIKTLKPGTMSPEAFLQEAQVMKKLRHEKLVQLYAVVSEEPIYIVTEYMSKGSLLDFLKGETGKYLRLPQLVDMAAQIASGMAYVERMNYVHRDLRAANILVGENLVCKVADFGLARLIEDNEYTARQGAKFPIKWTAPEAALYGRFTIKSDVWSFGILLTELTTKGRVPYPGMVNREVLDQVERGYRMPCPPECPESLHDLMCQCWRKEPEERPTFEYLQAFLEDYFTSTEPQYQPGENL
T2 sequence (P06241 whole entry, species assumed): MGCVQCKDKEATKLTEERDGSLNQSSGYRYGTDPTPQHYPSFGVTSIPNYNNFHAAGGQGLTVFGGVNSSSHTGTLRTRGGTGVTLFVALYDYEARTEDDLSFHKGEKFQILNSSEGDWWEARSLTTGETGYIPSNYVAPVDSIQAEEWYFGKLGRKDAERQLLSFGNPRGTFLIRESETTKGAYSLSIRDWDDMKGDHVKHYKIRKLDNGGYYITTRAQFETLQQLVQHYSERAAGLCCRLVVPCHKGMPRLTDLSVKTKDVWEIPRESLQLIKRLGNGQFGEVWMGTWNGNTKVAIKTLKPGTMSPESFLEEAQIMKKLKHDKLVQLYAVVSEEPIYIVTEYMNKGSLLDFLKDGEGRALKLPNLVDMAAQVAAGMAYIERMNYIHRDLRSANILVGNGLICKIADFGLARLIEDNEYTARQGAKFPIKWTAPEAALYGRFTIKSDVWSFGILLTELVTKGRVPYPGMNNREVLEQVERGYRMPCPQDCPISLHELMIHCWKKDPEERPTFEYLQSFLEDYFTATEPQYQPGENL
T4 sequence (P06239 whole entry, species assumed): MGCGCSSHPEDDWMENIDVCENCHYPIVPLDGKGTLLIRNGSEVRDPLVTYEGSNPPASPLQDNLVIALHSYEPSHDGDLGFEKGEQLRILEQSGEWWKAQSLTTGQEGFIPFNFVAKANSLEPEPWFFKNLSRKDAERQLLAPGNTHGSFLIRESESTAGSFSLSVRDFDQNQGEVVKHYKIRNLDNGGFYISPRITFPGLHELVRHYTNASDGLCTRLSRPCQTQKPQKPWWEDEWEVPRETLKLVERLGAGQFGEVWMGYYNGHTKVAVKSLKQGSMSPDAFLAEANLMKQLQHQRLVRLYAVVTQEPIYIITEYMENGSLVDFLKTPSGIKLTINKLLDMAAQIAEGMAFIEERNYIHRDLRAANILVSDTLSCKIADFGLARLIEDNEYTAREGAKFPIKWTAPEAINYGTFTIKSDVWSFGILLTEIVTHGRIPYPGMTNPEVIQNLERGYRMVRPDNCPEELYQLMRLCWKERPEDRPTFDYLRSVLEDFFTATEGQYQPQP

By inhibition is commonly meant the share of the control response that was lost under treatment. On to `O=c1[nH]c2ncccc2c2cc(Cl)ccc12` [Example 6, 9-Chloro-5H-benzo[c][1,8]naphthyridin-6-one], for which the inhibition at 10 µM at AurA lay in the range of 50 to 70%.

`O=c1[nH]c2ncc(Cl)cc2c2ccccc12` [Example 9, 2-Chloro-5H-benzo[c][1,8]naphthyridin-6-one]: the inhibition at 10 µM at AurA is 50 to 70%.

As to `O=c1[nH]c2ncc(Nc3ccccc3)cc2c2ccccc12` [Example 12, 2-Phenylamino-5H-benzo[c][1,8]naphthyridin-6-one], the inhibition at 10 µM lay in the range of 50 to 70% on FYN and 70 to 90% at ABL.

Turning to `O=c1[nH]c2ncc(NCc3ccccc3)cc2c2ccccc12` [Example 13, 2-Benzylamino-5H-benzo[c][1,8]naphthyridin-6-one], the inhibition at 10 µM was 50 to 70% on LCK; 70 to 90% at LYN; 70 to 90% on SRC; above 90% on FYN; 50 to 70% on ABL.

The IC50 is the concentration at which inhibition is half-maximal. Take `O=c1[nH]c2ncccc2c2cc(NCc3ccccc3)ccc12` [Example 25, 9-Benzylamino-5H-benzo[c][1,8]naphthyridin-6-one]: the IC50 on GST-Aurora A was above 100 nM. The inhibition at 1 µM against AurA is 70 to 90%.

Take `O=c1[nH]c2ncccc2c2cc(N3CCOCC3)ccc12` [Example 26, 9-Morpholin-4-yl-5H-benzo[c][1,8]naphthyridin-6-one]: the inhibition at 10 µM on AurA lay within 70 to 90%; on CHK2 it was 50 to 70%.

For the compound `COCCNc1ccc2c(=O)[nH]c3ncccc3c2c1` [Example 27, 9-(2-Methoxy-ethylamino)-5H-benzo[c][1,8]naphthyridin-6-one], the values for the inhibition at 10 µM on AurA and at CHK2 were 70 to 90% and 50 to 70%, respectively.

Take `COc1ccc(Nc2ccc3c(=O)[nH]c4ncccc4c3c2)cc1` [Example 29, 9-(4-Methoxy-phenylamino)-5H-benzo[c][1,8]naphthyridin-6-one]: the IC50 at GST-Aurora A was above 100 nM. Further, at AurA, the inhibition at 1 µM lay within 50 to 70% and the inhibition at 10 µM lay in the range of 70 to 90%.

Consider `COc1ccccc1Nc1ccc2c(=O)[nH]c3ncccc3c2c1` [Example 30, 9-(2-Methoxy-phenylamino)-5H-benzo[c][1,8]naphthyridin-6-one], for which the inhibition at 10 µM on LYN is 70 to 90%; at SRC, 50 to 70%; at FYN, 50 to 70%; at ABL, 50 to 70%; on AurA, above 90%. The IC50 at GST-Aurora A was above 100 nM. Further, at AurA, the inhibition at 1 µM lay in the range of 70 to 90%.

As to `COc1ccc(CNc2ccc3c(=O)[nH]c4ncccc4c3c2)cc1` [Example 33, 9-(4-Methoxy-benzylamino)-5H-benzo[c][1,8]naphthyridin-6-one], at AurA, the inhibition at 1 µM fell in the range of 50 to 70% and the inhibition at 10 µM lay in the range of 70 to 90%.

Turning to `COc1ccccc1CNc1ccc2c(=O)[nH]c3ncccc3c2c1` [Example 34, 9-(2-Methoxy-benzylamino)-5H-benzo[c][1,8]naphthyridin-6-one], the IC50 on GST-Aurora A is above 100 nM. In addition, the inhibition at 1 µM against AurA was above 90%.

As for `O=c1[nH]c2ncccc2c2cc(NCc3cccc(F)c3)ccc12` [Example 35, 9-(3-Fluoro-benzylamino)-5H-benzo[c][1,8]naphthyridin-6-one], the IC50 at GST-Aurora A is above 100 nM. Further, on AurA, the inhibition at 1 µM was above 90%.

Turning to `COc1ccc(CCNc2ccc3c(=O)[nH]c4ncccc4c3c2)cc1` [Example 36, 9-[2-(4-Methoxy-phenyl)-ethylamino]-5H-benzo[c][1,8]naphthyridin-6-one], the inhibition at 10 µM is 50 to 70% at FYN, above 90% at AurA and 70 to 90% at CHK2. Moreover, on GST-Aurora A, the IC50 is above 100 nM. The same compound returned an inhibition at 1 µM against AurA of 50 to 70%.

For `COc1ccc(CNc2cnc3[nH]c(=O)c4ccccc4c3c2)cc1` [Example 37, 2-(4-Methoxy-benzylamino)-5H-benzo[c][1,8]naphthyridin-6-one], the inhibition at 10 µM at AurA lay in the range of 50 to 70%.

In the case of `COc1cccc(CNc2cnc3[nH]c(=O)c4ccccc4c3c2)c1` [Example 38, 2-(3-Methoxy-benzylamino)-5H-benzo[c][1,8]naphthyridin-6-one], the inhibition at 10 µM on AurA was 50 to 70%.

With `COc1ccccc1CNc1cnc2[nH]c(=O)c3ccccc3c2c1` [Example 39, 2-(2-Methoxy-benzylamino)-5H-benzo[c][1,8]naphthyridin-6-one], at AurA, the inhibition at 10 µM was in the range of 50 to 70%.

For the compound `O=c1[nH]c2nccc(Nc3ccccc3)c2c2ccccc12` [Example 95, 1-Phenylamino-5H-benzo[c][1,8]naphthyridin-6-one], the inhibition at 1 µM against LCK (setting [1]) is 50 to 70%; at SRC, above 90%; on FYN, above 90%; on ABL, above 90%; at AurA it was 50 to 70%. For the same compound, the inhibition at 10 µM on LCK was 70 to 90%; at LYN, above 90%; on SRC it was above 90%; at FYN, above 90%; on ABL, above 90%; at AurA, 70 to 90%. At CHK2, the inhibition at 10 µM was 50 to 70%.

Turning to `COc1ccccc1Nc1ccnc2[nH]c(=O)c3ccccc3c12` [Example 114, 1-(2-Methoxy-phenylamino)-5H-benzo[c][1,8]naphthyridin-6-one], the inhibition at 10 µM at LCK was 50 to 70%; at LYN, above 90%; on SRC it was above 90%; on FYN it was 50 to 70%; on ABL, above 90%; at AurA, above 90%. The inhibition at 10 µM on CHK2 lay in the range of 50 to 70%. Moreover, the inhibition at 1 µM at LYN (setting [1]), at SRC, against FYN, at ABL and against AurA was 70 to 90% in each case. In addition, the IC50 on GST-Aurora A was above 100 nM.

For `O=c1[nH]c2nccc(Nc3ccc(Oc4ccccc4)cc3)c2c2ccccc12` [Example 121, 1-(4-Phenoxy-phenylamino)-5H-benzo[c][1,8]naphthyridin-6-one], the inhibition at 10 µM is 70 to 90% on LCK; 70 to 90% on LYN; 70 to 90% on SRC; 70 to 90% on FYN; 50 to 70% on AurA.

With `COc1ccc(Oc2ccnc3[nH]c(=O)c4ccccc4c23)cc1` [Example 125, 1-(4-Methoxy-phenoxy)-5H-benzo[c][1,8]naphthyridin-6-one], the inhibition at 1 µM at FYN and at ABL was 70 to 90% in each case.

Take `Clc1nc2nccc(Oc3ccccc3)c2c2ccccc12` [Example 140, 6-Chloro-1-phenoxy-benzo[c][1,8]naphthyridine]: the inhibition at 10 µM on SRC, at FYN and at ABL was 50 to 70% throughout.

Consider `Nc1ccnc2[nH]c(=O)c3ccccc3c12` [Example 141, 1-Amino-5H-benzo[c][1,8]naphthyridin-6-one], for which the inhibition at 10 µM at AurA is 50 to 70%.
